# Assay results published in the supplement of paper PMC10307832.
# Legend:
# Test in all cases: relative viability (nuclei count vs DMSO), 5 days (fraction); higher = more cells survive
# BX 795 + Palbociclib = compound: O=C(NCCCNc1nc(Nc2cccc(NC(=O)N3CCCC3)c2)ncc1I)c1cccs1 [BX 795] + CC(=O)c1c(C)c2cnc(Nc3ccc(N4CCNCC4)cn3)nc2n(C2CCCC2)c1=O [Palbociclib] (partner 0.5 µM)
# How it was run: (§1)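 Lung cancer cell lines, seeded in 1536-well plates, were treated the following day by pin tool with a single drug or with five library-drug doses (not always all listed) in √10 steps on top of a fixed anchor-drug dose. Cells were fixed and nuclei stained in one step after 5 days, and nuclei were counted. Relative viability is the nuclei count for treated wells divided by that for vehicle wells, reported as medians of duplicate plates.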
# BX 795 + Lapatinib = compound: O=C(NCCCNc1nc(Nc2cccc(NC(=O)N3CCCC3)c2)ncc1I)c1cccs1 [BX 795] + CS(=O)(=O)CCNCc1ccc(-c2ccc3ncnc(Nc4ccc(OCc5cccc(F)c5)c(Cl)c4)c3c2)o1 [Lapatinib] (partner 2 µM)
# How it was run: as §1
# BX 795 + Olaparib = compound: O=C(NCCCNc1nc(Nc2cccc(NC(=O)N3CCCC3)c2)ncc1I)c1cccs1 [BX 795] + O=C(c1cc(Cc2n[nH]c(=O)c3ccccc23)ccc1F)N1CCN(C(=O)C2CC2)CC1 [Olaparib] (partner 8 µM)
# How it was run: as §1
# BX 795 + Foretinib = compound: O=C(NCCCNc1nc(Nc2cccc(NC(=O)N3CCCC3)c2)ncc1I)c1cccs1 [BX 795] + COc1cc2c(Oc3ccc(NC(=O)C4(C(=O)Nc5ccc(F)cc5)CC4)cc3F)ccnc2cc1OCCCN1CCOCC1 [Foretinib] (partner 0.25 µM)
# How it was run: as §1
# BX 795 = compound: O=C(NCCCNc1nc(Nc2cccc(NC(=O)N3CCCC3)c2)ncc1I)c1cccs1 [BX 795]
# How it was run: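 Viability is treated-well nuclei as a fraction of vehicle-well nuclei, reported as the median across plates. Before counting, lung cancer cell lines were kept overnight at 37 °C in 1536-well plates, pinned with five √10-spaced library-drug doses on vehicle-anchored plates, and left 5 days without medium change, then fixed, permeabilised and Hoechst-stained in one step, imaged at 4× and counted by MetaXpress. A plate passed only if control CV was below 25% and at least one doubling occurred.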
Cell Line,relative viability (BX 795 + Palbociclib; first compound 0.04 µM),relative viability (BX 795 + Palbociclib; first compound 0.1265 µM),relative viability (BX 795 + Palbociclib; first compound 0.4 µM),relative viability (BX 795 + Palbociclib; first compound 1.265 µM),relative viability (BX 795 + Lapatinib; first compound 0.04 µM),relative viability (BX 795 + Lapatinib; first compound 0.1265 µM),relative viability (BX 795 + Lapatinib; first compound 0.4 µM),relative viability (BX 795 + Lapatinib; first compound 1.265 µM),relative viability (BX 795 + Olaparib; first compound 0.04 µM),relative viability (BX 795 + Olaparib; first compound 0.1265 µM),relative viability (BX 795 + Olaparib; first compound 0.4 µM),relative viability (BX 795 + Olaparib; first compound 1.265 µM),relative viability (BX 795 + Foretinib; first compound 0.04 µM),relative viability (BX 795 + Foretinib; first compound 0.1265 µM),relative viability (BX 795 + Foretinib; first compound 0.4 µM),relative viability (BX 795 + Foretinib; first compound 1.265 µM),relative viability (BX 795; 0.04 µM),relative viability (BX 795; 0.1265 µM),relative viability (BX 795; 0.4 µM),relative viability (BX 795; 1.265 µM)
COR-L23,0.359,0.287,0.253,0.191,1.14,1.17,0.884,0.663,0.328,0.311,0.247,0.166,1.07,0.97,0.909,0.715,1.04,1.04,1.05,0.669
EKVX,0.51,0.483,0.381,0.365,0.248,0.367,0.243,0.208,0.833,0.783,0.666,0.807,0.496,0.893,0.516,0.726,0.934,0.975,0.883,0.93
NCI-H650,0.346,0.343,0.319,0.312,0.86,0.873,0.952,0.689,0.451,0.367,0.412,0.259,1.06,0.935,0.927,0.911,0.933,1.02,0.954,0.805
NCI-H3122,0.182,0.221,0.208,0.226,1.04,1,1.09,1.05,0.573,0.609,0.539,0.669,1.01,1.04,1,0.992,0.981,1.01,1.04,1.06
HARA,0.237,0.183,0.201,0.208,0.714,0.564,0.753,0.697,0.436,0.328,0.549,0.766,0.914,0.935,0.849,0.31,0.921,0.81,0.975,0.947
ABC-1,0.768,,0.765,0.727,1.17,1.58,1.14,0.917,1.07,,0.962,0.526,1.03,1.05,0.929,0.601,0.888,0.797,0.917,0.906
LC-2-ad,0.476,0.493,0.408,0.483,0.89,0.962,0.7,0.274,0.756,0.456,0.685,0.608,1.12,0.867,0.981,0.808,1.04,0.924,0.912,0.661
NCI-H661,0.463,0.429,0.429,0.444,0.564,0.576,0.359,0.402,0.742,0.826,0.662,0.583,1.09,1.04,1.03,0.908,1.09,0.994,1.03,1.04
NCI-H1395,0.627,0.612,0.426,0.498,0.815,0.819,0.595,0.948,0.452,0.468,0.449,0.501,0.979,1.02,0.943,0.899,0.839,0.858,0.586,0.633
NCI-H647,0.425,0.365,0.384,0.3,1.08,1.21,0.941,0.362,0.406,0.565,0.288,0.232,1.19,1.24,1.26,0.916,0.81,1.02,0.891,0.82
HCC-15,0.766,0.712,0.663,0.616,0.721,0.871,0.795,0.661,0.857,0.73,1.04,0.499,0.973,1.04,0.925,0.915,0.967,1.05,0.973,0.804
NCI-H1993,0.67,0.744,0.671,0.642,0.848,0.786,0.79,0.658,0.847,0.92,1.16,0.92,0.804,0.961,0.73,0.665,1.05,0.983,0.926,0.893
NCI-H727,0.634,0.61,0.67,0.696,0.737,1.01,0.735,0.637,0.725,0.72,1.02,0.685,0.957,0.846,0.916,1.09,1.01,0.899,0.978,1
NCI-H1944,0.381,0.33,0.411,0.325,0.903,0.781,0.879,0.642,0.476,0.403,0.542,0.403,0.996,0.888,1.06,0.802,1.06,0.996,1.16,0.958
NCI-H2023,0.4,0.366,0.358,0.17,0.538,0.749,0.32,0.522,0.461,0.494,0.403,0.26,0.722,0.912,0.427,0.551,0.906,0.904,0.571,0.6
NCI-H2126,0.387,0.329,0.35,0.34,0.728,0.752,0.837,0.767,0.982,0.909,1,0.893,1.31,1.02,1.3,1.03,1.01,1.02,1.1,0.983

Cell Line,relative viability (BX 795 + Palbociclib; first compound 0.04 µM),relative viability (BX 795 + Palbociclib; first compound 0.1265 µM),relative viability (BX 795 + Palbociclib; first compound 0.4 µM),relative viability (BX 795 + Palbociclib; first compound 1.265 µM),relative viability (BX 795 + Lapatinib; first compound 0.04 µM),relative viability (BX 795 + Lapatinib; first compound 0.1265 µM),relative viability (BX 795 + Lapatinib; first compound 0.4 µM),relative viability (BX 795 + Lapatinib; first compound 1.265 µM),relative viability (BX 795 + Olaparib; first compound 0.04 µM),relative viability (BX 795 + Olaparib; first compound 0.1265 µM),relative viability (BX 795 + Olaparib; first compound 0.4 µM),relative viability (BX 795 + Olaparib; first compound 1.265 µM),relative viability (BX 795 + Foretinib; first compound 0.04 µM),relative viability (BX 795 + Foretinib; first compound 0.1265 µM),relative viability (BX 795 + Foretinib; first compound 0.4 µM),relative viability (BX 795 + Foretinib; first compound 1.265 µM),relative viability (BX 795; 0.04 µM),relative viability (BX 795; 0.1265 µM),relative viability (BX 795; 0.4 µM),relative viability (BX 795; 1.265 µM)
NCI-H838,0.231,0.234,0.197,0.172,0.87,0.943,0.736,0.424,0.853,0.757,0.643,0.248,0.952,0.924,0.917,0.413,0.892,0.993,0.79,0.614
201T,0.333,0.34,0.376,0.405,1.1,1.04,1.12,1.01,0.657,0.851,0.899,0.856,1.2,1.13,0.952,1.21,0.983,0.996,1.07,1.04
NCI-H1734,0.404,0.377,0.35,0.354,0.993,1.15,0.79,0.801,0.612,0.662,0.501,0.514,0.836,0.982,0.83,0.456,1.06,1.02,0.908,0.668
SK-MES-1,0.303,0.302,0.271,0.286,0.509,0.45,0.458,0.385,0.746,0.646,0.688,0.383,0.917,0.971,0.823,0.674,1.06,0.979,0.932,0.761
NCI-H1651,0.566,0.534,0.538,0.541,0.756,0.801,0.764,0.64,0.193,0.166,0.167,0.163,0.786,0.748,0.76,0.674,1.04,1.04,0.993,1
LCLC-97TM1,0.22,0.201,0.314,0.208,1.05,0.842,0.926,0.362,0.507,0.404,0.409,0.266,0.912,0.913,0.862,0.567,1.11,1.02,1.1,0.716
H3255,0.323,0.276,0.314,0.316,0.289,0.234,0.256,0.255,0.624,0.608,0.501,0.492,0.965,0.764,1.02,0.848,0.985,1.07,1.02,0.949
NCI-H322M,0.486,0.468,0.571,0.587,0.675,0.616,0.628,0.684,0.978,0.821,0.577,0.885,0.949,1.17,0.967,1.33,1.09,0.964,1.12,1.25
HCC-366,0.477,0.362,0.289,0.415,0.834,1.11,0.858,1.12,0.336,0.404,0.175,0.252,0.973,0.959,0.94,0.235,1.02,1.02,0.944,0.945
NCI-H2170,0.364,0.395,0.394,0.381,0.26,0.28,0.262,0.289,0.597,0.681,0.538,0.487,0.979,1.02,1.05,0.998,0.955,0.951,0.958,0.942
LK-2,0.83,0.862,0.635,0.559,1.02,0.912,0.83,0.797,0.769,0.883,0.739,0.641,0.937,1.51,1.31,1.1,0.998,1.02,0.863,0.929
LXF-289,0.671,0.595,0.638,0.579,0.867,0.896,0.904,0.843,1.06,1.04,1.2,0.81,0.963,0.908,1.02,0.9,0.962,1,1.02,0.9
HOP-62,0.471,0.465,0.502,0.47,1.09,1.1,1.29,1.07,0.419,0.265,0.266,0.605,1.04,0.967,1.37,0.923,0.963,1.06,1.21,1
NCI-H520,0.189,0.263,0.187,0.177,0.38,0.778,0.672,0.301,0.334,0.357,0.307,0.22,0.555,0.772,0.832,0.365,0.99,1.04,0.869,0.733
NCI-H1650,0.394,0.328,0.319,0.289,0.938,0.737,0.671,0.521,0.903,0.713,0.711,0.814,1.24,1.06,0.668,0.792,0.915,1.05,0.8,0.778
